Measurements from ChEMBL document CHEMBL1201862, “PubChem BioAssay data set” (2004).
Active and inactive are the calls of the source.

Experiments:
[1] = target: Epstein-Barr nuclear antigen 1 (Epstein-Barr virus (strain B95-8) (HHV-4) (Human herpesvirus 4), UniProt P03211); assay: EBNA-1 inhibitors, dose response, biochemical, fluorescence polarization, 1536-well (AID 2381); set-up: species or system human gammaherpesvirus 4;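 further: fluorescence polarization of a Cy5 DNA probe bound by EBNA-1 protein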
[2] = target: Lytic switch protein BZLF1 (Epstein-Barr virus (strain B95-8) (HHV-4) (Human herpesvirus 4), UniProt P03206); assay: EBV ZTA inhibitors, dose response, counter-screen for EBNA-1 inhibitor project, biochemical, fluorescence polarization, Epstein-Barr virus, 1536-well (AID 2377); set-up: species or system human gammaherpesvirus 4;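 further: fluorescence polarization of Cy5-labelled ZRE DNA probe bound by purified Zta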
NADPH oxidase 1 = NADPH oxidase 1 (Homo sapiens, UniProt Q9Y5S8); assay type: functional, cell-based;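 further: Cell-based assay with luminescence read-out, IC50 derived from inhibitor dose-response curves; intracellular ROS from endogenous NOX1 in intact HT29 colon cancer cells; potency of inhibitors that lower the ROS luminescence signal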
[3] = growth suppression of beta-catenin-knockout colon cells, dose response, cell-based, HCT116, human colon tumor (AID 1045); assay type: functional;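 further: HCT116 colon tumor cells with beta catenin knocked out; cells exposed to compound for 60 hours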
[4] = target: Protein-tyrosine kinase 2-beta (Homo sapiens, UniProt Q14289);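 further: potency of inhibitors of PYK2 kinase phosphorylation of poly-GT substrate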
[5] = growth suppression of PTEN-null colon cells, dose response, cell-based, HCT116 PTEN knockout (AID 1047); assay type: functional;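 further: HCT116 colon tumor cells with PTEN knocked out; cells exposed to compound for 60 hours before readout; potency for loss of cell viability measured by luminescence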
[6] = cytotoxicity toward NIH3T3 fibroblasts, dose response, counter-screen, cell-based, ATP luminescence, mouse fibroblasts (AID 2010); assay type: functional;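 further: cells exposed to compound for about 90 hours before reading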
[7] = inhibitors of intracellular T. cruzi replication, confirmation, NIH3T3 host cells, beta-gal luminescence (AID 2044); assay type: functional, cell-based;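 further: intracellular parasites grown in NIH/3T3 mouse fibroblasts as host cells; luminescent beta-galactosidase reporter signal from transgenic T. cruzi replicating inside host cells; inhibitors lower the luminescence signal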
[8] = Luminescence Cell-Based Dose Response to Identify Activators of Luciferase Translation or Activity in H4-C Neuroglioblastoma Cells. [Related pubchem assays: 1829 (Project Summary), 1814 (Primary HTS)]; assay type: functional
[9] = Luminescence Cell-Based Dose Response to Identify Activators of 5'UTR Stem-Loop Driven Prion Protein mRNA Translation in H4-C Neuroglioblastoma Cells. [Related pubchem assays: 1829 (Project Summary), 1814 (Primary HTS)]; assay type: functional
[10] = Luminescence Cell-Based Dose Response HTS to Identify Activators of Luciferase Translation or Activity in H4 […] Cells. [Related pubchem assays: 1829 (Project Summary), 1814 (Primary HTS)]; assay type: functional
[11] = Luminescence Cell-Based Dose Confirmation to Identify Activators of 5'UTR Stem-Loop Driven Alpha-Synuclein mRNA Translation in H4 Neuroglioblastoma Cells. [Related pubchem assays: 1829 (Project Summary), 1814 (Primary HTS)]; assay type: functional
[12] = Luminescence Cell-Based Dose Confirmation HTS to Identify Activators of 5'UTR Stem-Loop Driven Alpha-Synuclein mRNA Translation in H4 Neuroglioblastoma Cells. [Related pubchem assays: 1829 (Project Summary), 1814 (Primary HTS)]; assay type: functional
H4 = assay: Luminescence Cell-Based Dose Response HTS to Identify Activators of 5'UTR Stem-Loop Driven Prion Protein mRNA Translation in H4 Neuroglioblastoma Cells. [Related pubchem assays: 1829 (Project Summary), 1814 (Primary HTS)]; assay type: functional; settings: Homo sapiens
Protein RecA = target: T1, Protein RecA (Mycobacterium tuberculosis, UniProt P9WHJ3); assay: Fluorescence Cell-Free Homogeneous Dose Retest to Identify Inhibitors of RecA-Intein Splicing Activity. [Related pubchem assays (depositor defined):AID2097, AID2223, AID489010, AID492950]; assay type: functional
T1 sequence (P9WHJ3 whole entry): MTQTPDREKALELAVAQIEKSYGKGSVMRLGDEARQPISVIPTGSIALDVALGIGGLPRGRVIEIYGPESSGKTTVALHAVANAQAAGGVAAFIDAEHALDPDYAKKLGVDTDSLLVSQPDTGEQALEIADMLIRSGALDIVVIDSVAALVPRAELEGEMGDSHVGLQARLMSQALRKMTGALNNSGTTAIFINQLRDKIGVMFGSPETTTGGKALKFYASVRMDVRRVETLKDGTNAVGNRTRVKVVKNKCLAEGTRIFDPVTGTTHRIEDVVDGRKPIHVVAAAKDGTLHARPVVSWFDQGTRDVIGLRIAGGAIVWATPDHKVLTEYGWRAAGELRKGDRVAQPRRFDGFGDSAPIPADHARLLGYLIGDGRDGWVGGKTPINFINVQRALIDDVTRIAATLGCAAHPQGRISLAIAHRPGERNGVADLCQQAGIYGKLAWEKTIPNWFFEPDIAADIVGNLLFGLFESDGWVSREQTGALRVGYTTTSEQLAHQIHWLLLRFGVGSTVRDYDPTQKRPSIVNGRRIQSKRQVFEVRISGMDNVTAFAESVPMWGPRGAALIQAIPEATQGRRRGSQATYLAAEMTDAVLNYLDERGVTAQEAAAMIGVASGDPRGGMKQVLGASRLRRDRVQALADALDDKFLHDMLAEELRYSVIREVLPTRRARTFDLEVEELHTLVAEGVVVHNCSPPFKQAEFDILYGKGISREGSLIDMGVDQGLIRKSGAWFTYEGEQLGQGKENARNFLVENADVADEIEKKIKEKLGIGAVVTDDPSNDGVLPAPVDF

[13] = target: T2, Kappa-type opioid receptor (Homo sapiens, UniProt P41145); assay type: functional
INS1 = assay: beta cell apoptosis inhibitors, cytokine rescue, dose response, luminescence, retest (AID 449756); assay type: functional, cell-based; settings: Rattus norvegicus;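 further: cell death triggered by IL-1 beta plus TNF-alpha plus IFN-gamma mixture; protective hits raise ATP signal compared with cytokine alone wells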
[14] = target: T3, Heat shock factor protein 1 (Mus musculus, UniProt P38532); assay: HSF1 potentiators in luciferase reporter cells, confirmation, cell-based, NIH3T3, luminescence, dose retest (AID 435004); assay type: functional;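 further: stress induced by proteasome inhibitor MG132 added 30 min after compound; luciferase reporter driven by HSF1 response element in NIH3T3 cells; actives raise luminescence as potentiators of the MG132 stress response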
T3 sequence (P38532 whole entry): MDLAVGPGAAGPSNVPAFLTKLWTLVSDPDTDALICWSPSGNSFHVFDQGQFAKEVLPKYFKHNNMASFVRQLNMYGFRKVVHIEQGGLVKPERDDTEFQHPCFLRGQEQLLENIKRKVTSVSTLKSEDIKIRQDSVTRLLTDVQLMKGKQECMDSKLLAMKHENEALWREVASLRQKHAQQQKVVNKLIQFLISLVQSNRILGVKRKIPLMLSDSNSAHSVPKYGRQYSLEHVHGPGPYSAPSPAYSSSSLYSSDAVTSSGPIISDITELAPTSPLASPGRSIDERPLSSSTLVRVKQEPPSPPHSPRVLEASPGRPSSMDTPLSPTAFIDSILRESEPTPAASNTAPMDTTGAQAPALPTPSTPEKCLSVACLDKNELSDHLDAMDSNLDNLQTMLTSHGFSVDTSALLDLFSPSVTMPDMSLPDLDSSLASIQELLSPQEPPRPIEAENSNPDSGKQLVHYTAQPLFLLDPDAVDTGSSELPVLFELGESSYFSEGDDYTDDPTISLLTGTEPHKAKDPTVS

[15] = HEK293T cytotoxicity, dose response, cytotoxicity control for miR-122 modulator project, cell-based, inhibitor set, cherry-pick, set 2 (AID 720697); assay type: functional
[16] = HEK293T cytotoxicity, dose response, cytotoxicity control for miR-122 modulator project, cell-based, activator set, cherry-pick (AID 720690); assay type: functional;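 further: HEK293T human cells scored for general mammalian cytotoxicity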
[17] = target: Sphingosine 1-phosphate receptor 1 (Homo sapiens, UniProt P21453); assay type: functional;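 further: Tango beta-arrestin reporter U2OS cells stimulated with S1P near its EC80; inhibitor potency meaning antagonism of receptor activation by the natural agonist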
[18] = target: T4, Type-1 angiotensin II receptor (Homo sapiens, UniProt P30556); assay: AT1 receptor antagonists, dose response, selectivity assay for APJ receptor antagonist project, cell-based, uHTS hits (AID 463214); assay type: functional;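 further: antagonist potency against angiotensin II stimulated AT1 response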
T4 sequence (P30556 whole entry): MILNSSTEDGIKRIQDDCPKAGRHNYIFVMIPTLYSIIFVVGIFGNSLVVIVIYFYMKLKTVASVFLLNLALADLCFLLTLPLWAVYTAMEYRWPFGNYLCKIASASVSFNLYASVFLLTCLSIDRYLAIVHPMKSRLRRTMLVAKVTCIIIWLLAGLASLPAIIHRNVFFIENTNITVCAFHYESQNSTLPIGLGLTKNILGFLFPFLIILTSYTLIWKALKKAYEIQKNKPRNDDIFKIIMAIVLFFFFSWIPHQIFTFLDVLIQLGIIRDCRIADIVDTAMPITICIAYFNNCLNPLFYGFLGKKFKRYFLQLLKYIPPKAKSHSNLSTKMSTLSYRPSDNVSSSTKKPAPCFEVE

Beta Lactamase = Beta Lactamase (Pseudomonas aeruginosa, UniProt Q932Y6); assay: beta-lactamase reporter inhibitor potency, dose response, artefact control for TLR9-MyD88 binding inhibitor project, BLA reporter cells, FRET fluorescence (AID 588341); assay type: cell-based;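 further: cell based assay in CHO-K1 cells stably expressing beta-lactamase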
CHO = assay: cytotoxicity in TLR9-MyD88 CHO cells, dose response, cytotoxicity control for TLR9-MyD88 binding inhibitor project, cell-based, luminescence (AID 588339); assay type: functional, hamster; settings: Cricetulus griseus;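 further: CHO cells stably coexpressing TLR9 and MyD88 fusions from primary screen; compound exposure lasted 48 hours before viability readout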
Beta-galactosidase [19] = target: T5, Beta-galactosidase (Escherichia coli, UniProt Q8VNN2); assay: PubChem AID 485352; assay type: functional
[20] = target: Sphingosine 1-phosphate receptor 4 (Homo sapiens, UniProt O95977); assay: Fluorescence dose response cell-based high throughput screening assay for antagonists of the Sphingosine 1-Phosphate Receptor 4 (S1P4). [Related pubchem assays: 1524 (Confirmation in triplicates.), 1510 (Primary screen.)]; assay type: functional
[21] = target: T6, Replicative DNA helicase DnaB (Mycobacterium tuberculosis, UniProt P9WMR3); assay: DnaB intein splicing inhibitors, dose response, biochemical, cell-free fluorescence (AID 449749); assay type: functional
T6 sequence (P9WMR3 whole entry): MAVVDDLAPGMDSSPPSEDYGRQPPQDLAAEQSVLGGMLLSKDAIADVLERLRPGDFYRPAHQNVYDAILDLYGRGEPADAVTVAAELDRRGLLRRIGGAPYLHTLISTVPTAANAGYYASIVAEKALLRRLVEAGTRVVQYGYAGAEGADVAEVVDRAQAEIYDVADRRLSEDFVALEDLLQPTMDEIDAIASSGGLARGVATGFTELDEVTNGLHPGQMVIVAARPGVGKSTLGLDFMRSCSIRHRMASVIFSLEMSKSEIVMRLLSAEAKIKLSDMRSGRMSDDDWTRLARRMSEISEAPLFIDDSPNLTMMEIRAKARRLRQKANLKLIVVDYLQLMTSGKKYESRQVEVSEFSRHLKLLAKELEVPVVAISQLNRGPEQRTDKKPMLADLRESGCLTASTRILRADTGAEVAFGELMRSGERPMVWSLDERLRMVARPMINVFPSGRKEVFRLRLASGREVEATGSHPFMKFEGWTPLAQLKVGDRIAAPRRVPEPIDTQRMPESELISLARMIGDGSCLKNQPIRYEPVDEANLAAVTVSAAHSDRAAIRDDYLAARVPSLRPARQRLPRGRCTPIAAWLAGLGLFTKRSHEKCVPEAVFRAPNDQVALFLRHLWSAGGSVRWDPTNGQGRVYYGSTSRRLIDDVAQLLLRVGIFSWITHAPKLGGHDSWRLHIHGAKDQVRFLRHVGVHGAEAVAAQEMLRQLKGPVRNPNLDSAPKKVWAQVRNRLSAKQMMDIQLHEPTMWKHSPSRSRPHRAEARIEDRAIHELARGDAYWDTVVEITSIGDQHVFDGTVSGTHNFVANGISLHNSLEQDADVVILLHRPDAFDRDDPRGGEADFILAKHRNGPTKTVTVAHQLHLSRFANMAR

Beta-galactosidase [22] = target: T5, Beta-galactosidase; assay type: functional
[23] = miR-122 activators in hepatoma reporter cells, dose response, cell-based, Huh7 psiCHECK-miR122, Renilla luciferase, cherry-picked (AID 651956); assay type: functional;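 further: huh7 hepatoma cells stably carrying a psiCHECK-2 miR-122 sensor plasmid; renilla luciferase signal reporting endogenous miR-122 activity after 48 h compound exposure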
[24] = target: T2, Kappa-type opioid receptor; assay type: functional; remark: listed apart in the source

T2 sequence (P41145 whole entry): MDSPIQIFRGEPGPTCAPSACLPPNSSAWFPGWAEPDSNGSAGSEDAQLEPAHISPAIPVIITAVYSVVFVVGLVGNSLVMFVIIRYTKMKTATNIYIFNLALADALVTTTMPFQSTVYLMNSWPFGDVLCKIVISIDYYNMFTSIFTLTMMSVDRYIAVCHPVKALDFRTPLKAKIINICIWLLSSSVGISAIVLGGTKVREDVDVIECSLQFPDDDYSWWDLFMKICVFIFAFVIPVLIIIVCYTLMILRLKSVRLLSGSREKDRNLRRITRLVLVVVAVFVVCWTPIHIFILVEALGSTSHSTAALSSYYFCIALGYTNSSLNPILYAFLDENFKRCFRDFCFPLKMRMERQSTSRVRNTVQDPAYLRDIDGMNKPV
Chain of NADPH oxidase 1 (Q9Y5S8 whole entry): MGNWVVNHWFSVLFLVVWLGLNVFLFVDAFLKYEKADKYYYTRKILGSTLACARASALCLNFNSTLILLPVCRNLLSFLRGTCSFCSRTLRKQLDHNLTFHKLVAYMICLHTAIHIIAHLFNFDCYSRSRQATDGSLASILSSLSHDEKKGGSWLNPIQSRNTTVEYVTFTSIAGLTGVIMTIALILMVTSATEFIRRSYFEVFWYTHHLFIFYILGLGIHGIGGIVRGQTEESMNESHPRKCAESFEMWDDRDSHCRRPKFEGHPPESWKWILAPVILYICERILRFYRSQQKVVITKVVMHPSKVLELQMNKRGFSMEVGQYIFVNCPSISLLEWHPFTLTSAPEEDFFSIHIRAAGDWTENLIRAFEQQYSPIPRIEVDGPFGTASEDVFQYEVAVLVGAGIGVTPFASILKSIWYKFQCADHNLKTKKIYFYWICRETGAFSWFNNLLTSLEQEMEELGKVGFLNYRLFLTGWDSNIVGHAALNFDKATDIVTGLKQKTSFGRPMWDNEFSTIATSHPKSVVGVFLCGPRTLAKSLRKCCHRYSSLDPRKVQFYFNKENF
Chain of Lytic switch protein BZLF1 (P03206 whole entry): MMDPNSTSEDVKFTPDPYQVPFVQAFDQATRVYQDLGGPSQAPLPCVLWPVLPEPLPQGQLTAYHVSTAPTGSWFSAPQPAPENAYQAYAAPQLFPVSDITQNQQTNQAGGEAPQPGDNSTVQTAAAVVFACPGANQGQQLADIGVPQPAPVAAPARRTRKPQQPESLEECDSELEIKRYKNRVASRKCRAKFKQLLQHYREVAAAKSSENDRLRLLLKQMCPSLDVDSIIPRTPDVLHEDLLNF
Chain of Epstein-Barr nuclear antigen 1 (P03211 whole entry): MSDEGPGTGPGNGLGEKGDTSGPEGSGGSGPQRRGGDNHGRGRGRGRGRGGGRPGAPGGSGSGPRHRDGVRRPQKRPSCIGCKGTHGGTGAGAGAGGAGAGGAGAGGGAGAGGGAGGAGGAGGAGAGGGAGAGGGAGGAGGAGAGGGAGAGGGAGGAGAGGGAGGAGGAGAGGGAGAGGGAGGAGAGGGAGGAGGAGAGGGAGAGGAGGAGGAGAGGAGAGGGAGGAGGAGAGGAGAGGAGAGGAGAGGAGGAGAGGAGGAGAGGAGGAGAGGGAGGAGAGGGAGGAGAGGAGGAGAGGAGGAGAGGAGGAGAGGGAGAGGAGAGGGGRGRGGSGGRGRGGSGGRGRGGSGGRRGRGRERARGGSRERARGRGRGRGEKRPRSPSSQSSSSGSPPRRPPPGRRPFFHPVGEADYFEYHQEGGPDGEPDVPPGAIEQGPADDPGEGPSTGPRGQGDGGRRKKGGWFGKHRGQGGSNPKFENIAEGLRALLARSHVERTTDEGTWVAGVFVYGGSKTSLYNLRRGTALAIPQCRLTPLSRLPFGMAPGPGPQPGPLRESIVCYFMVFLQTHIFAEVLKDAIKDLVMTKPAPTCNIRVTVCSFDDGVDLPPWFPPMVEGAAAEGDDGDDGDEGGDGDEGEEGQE
T5 sequence (Q8VNN2 whole entry): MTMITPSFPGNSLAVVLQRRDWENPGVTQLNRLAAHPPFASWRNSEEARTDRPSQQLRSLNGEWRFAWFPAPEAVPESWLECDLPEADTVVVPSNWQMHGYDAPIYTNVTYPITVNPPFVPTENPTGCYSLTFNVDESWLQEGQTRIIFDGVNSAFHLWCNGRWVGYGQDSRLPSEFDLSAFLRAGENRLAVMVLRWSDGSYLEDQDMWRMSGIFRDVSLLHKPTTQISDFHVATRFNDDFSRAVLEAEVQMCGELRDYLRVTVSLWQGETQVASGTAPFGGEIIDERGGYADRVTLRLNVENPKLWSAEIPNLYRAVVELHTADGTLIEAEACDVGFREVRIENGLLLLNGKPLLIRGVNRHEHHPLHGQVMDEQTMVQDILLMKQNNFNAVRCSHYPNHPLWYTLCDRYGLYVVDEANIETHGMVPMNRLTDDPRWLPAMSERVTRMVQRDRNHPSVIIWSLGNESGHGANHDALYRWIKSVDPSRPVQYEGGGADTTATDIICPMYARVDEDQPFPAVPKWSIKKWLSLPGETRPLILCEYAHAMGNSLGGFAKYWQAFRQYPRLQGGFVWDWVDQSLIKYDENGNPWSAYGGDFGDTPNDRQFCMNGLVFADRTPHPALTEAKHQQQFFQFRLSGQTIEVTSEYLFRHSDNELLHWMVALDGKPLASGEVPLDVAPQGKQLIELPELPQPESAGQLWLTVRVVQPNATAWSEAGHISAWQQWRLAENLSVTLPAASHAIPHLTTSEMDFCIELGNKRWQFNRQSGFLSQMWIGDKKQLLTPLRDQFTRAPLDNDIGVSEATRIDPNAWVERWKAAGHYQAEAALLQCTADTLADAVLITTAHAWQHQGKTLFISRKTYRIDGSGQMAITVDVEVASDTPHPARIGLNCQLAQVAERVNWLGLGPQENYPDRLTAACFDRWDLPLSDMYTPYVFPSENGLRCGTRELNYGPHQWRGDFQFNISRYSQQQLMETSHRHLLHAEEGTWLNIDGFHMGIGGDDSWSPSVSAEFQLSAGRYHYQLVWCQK
Chain of Beta Lactamase (Q932Y6 whole entry, the tested form may be a part): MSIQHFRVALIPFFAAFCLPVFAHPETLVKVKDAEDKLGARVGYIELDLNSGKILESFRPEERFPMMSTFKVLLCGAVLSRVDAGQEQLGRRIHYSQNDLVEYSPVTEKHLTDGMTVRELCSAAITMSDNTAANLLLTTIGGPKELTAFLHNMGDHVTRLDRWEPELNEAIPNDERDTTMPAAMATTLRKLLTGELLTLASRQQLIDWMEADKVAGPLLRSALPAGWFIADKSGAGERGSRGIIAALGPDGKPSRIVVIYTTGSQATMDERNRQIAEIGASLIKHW
Chain of Protein-tyrosine kinase 2-beta (Q14289 whole entry): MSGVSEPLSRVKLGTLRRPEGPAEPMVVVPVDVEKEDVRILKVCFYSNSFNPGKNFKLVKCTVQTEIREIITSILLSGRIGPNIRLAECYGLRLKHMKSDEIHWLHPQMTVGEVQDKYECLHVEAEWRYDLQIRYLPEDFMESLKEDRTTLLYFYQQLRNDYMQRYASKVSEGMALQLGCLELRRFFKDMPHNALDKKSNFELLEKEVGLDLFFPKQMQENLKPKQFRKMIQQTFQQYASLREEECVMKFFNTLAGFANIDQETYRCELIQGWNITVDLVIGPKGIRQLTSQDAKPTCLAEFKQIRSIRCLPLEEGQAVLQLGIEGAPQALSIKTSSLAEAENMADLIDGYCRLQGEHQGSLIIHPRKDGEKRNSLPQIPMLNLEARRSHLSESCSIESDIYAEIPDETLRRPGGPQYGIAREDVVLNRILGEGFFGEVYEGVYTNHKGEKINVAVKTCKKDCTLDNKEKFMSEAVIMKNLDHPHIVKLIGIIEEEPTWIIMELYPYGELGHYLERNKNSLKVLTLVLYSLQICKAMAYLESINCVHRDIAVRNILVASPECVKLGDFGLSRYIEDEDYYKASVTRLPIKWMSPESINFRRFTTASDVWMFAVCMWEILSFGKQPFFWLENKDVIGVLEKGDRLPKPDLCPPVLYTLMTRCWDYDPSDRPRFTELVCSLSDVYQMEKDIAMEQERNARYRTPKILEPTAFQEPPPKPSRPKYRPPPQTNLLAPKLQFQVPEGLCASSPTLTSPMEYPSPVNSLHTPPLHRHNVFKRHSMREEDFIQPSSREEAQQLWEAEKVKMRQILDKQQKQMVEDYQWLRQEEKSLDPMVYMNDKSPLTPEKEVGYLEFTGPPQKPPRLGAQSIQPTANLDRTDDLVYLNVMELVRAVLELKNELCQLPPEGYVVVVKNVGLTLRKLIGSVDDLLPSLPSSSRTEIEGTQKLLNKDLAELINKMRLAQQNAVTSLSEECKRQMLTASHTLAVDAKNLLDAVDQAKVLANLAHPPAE
Chain of Sphingosine 1-phosphate receptor 4 (O95977 whole entry): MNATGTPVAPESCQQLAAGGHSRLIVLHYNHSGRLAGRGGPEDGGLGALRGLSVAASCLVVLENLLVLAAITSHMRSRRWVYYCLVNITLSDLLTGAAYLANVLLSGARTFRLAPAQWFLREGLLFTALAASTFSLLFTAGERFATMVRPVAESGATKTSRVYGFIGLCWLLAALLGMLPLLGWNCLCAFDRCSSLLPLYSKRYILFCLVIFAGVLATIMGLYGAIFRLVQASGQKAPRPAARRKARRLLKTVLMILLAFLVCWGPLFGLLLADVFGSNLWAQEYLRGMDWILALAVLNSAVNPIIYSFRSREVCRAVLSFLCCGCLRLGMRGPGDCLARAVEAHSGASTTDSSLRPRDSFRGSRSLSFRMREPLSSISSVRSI
Chain of Sphingosine 1-phosphate receptor 1 (P21453 whole entry): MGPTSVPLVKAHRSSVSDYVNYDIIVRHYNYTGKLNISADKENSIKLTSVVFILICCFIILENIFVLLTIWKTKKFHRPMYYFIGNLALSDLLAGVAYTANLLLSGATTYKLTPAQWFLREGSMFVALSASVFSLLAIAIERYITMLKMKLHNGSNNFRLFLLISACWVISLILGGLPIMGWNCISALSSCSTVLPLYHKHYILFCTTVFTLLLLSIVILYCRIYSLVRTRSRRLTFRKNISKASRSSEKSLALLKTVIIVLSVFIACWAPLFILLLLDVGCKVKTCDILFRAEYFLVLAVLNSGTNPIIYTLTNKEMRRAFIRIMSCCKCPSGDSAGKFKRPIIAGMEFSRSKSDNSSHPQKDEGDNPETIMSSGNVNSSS

CCOC(=O)N1CCc2c(sc(NC(=O)C3COc4ccccc4O3)c2C(N)=O)C1 (configuration not stated)
IC50 [1]: 15.3 µM (not active) | IC50 [2]: > 111 µM (not active)

COc1cccc(OC(=O)c2sc3ccccc3c2Cl)c1
IC50 (NADPH oxidase 1): > 17 µM (not active)

CN1CCc2c(sc3ncn4nc(-c5ccccc5O)nc4c23)C1
EC50 [3]: 10.4 µM (active) | IC50 [4]: 17.9 µM (not active) | EC50 [5]: 13.4 µM (active)

CC(=O)Nc1ccc(NC(=O)Cc2sc(-c3cccnc3)nc2-c2ccc(C)cc2)cc1
EC50 [6]: > 60 µM (not active) | IC50 [1]: > 5.47 µM (active) | IC50 [2]: > 111 µM (not active) | EC50 [7]: 1.28 µM (active)

COc1ccc(-c2nc(-c3ccc(O)cc3)[nH]c2-c2ccc(OC)cc2)cc1
IC50 (NADPH oxidase 1): 9.01 µM (active)

Cc1ccc(C(=O)Nc2ccc(C(F)(F)F)n(C)c2=O)cc1
EC50 [8]: 0.305 µM (active) | EC50 [9]: 0.317 µM (active) | EC50 [10]: < 0.1 µM (inconclusive) | EC50 [11]: 0.311 µM (active)

O=C1c2ccccc2S(=O)(=O)N1CC1CC(c2ccc(Cl)cc2)=NO1 (configuration not stated)
EC50 [8]: 0.407 µM (active) | EC50 [9]: 0.805 µM (active) | EC50 [10]: < 0.1 µM (active) | EC50 [12]: < 0.1 µM (active) | EC50 [11]: 0.435 µM (active) | EC50 (H4): 9.96 µM (active)

CCn1c(Cl)c(C=O)s/c1=N\S(=O)(=O)c1ccccc1
EC50 (Protein RecA): 1.3 µM (active) | IC50 [13]: 11.8 µM (active) | AC50 (INS1): 5.12 µM (active) | EC50 [14]: > 260 µM (inconclusive) | AC50 [15]: 1.84 µM (active) | AC50 [16]: 3.2 µM (active) | IC50 [17]: 7.5 µM (active) | IC50 [18]: 2.24 µM (active) | IC50 (Beta Lactamase): 12.5 µM (inactive) | IC50 (CHO): 0.952 µM (active) | EC50 (Beta-galactosidase [19]): > 40 µM (inactive) | IC50 [20]: 1.48 µM (active) | AC50 [21]: 18.2 µM (active) | EC50 (Beta-galactosidase [22]): > 31.5 µM (inactive) | AC50 [23]: 7.8 µM (active) | IC50 [24]: 4.85 µM
